One compound from patent US20080165354A1, “Method and Apparatus For Dissolving Solid Matter in Liquid” (priority 2005, published 2008) can be followed below.

“Also recorded” adds a separate entry of the source.

Data set [1] is described as follows: In situ Raman spectroscopic solid state analysis of the dissolving tablet in a flow-through chamber. The following applies: same setup as Example 1, flow rate 20 ml/min. The format is physicochemical. On the procedure:
Dissolution testing was carried out employing simultaneous liquid/solid phase analysis. A modified flow-through dissolution method was used, in which • the concentration of the medium was measured with a UV-Vis spectrophotometer and • a simultaneous solid state analysis on the dissolving tablet in a flow-through chamber was performed using an in situ Raman spectroscopic analysis. The dissolution testing setup consisted of the flow-through cell, liquid reservoir (V=500 ml) and a peristaltic pump that circulates the medium (pump speed=70 rpm 9,3 ml/min). The dissolution medium used in the experiments was distilled water (room temperature). The Raman spectra were collected using a Raman spectrometer (Control Development, South Bend, Ind., USA) with a diode laser (Starbright 785 S, Torsana Laser Technologies, Skodsborg, Denmark) at 785 nm. A fiber optic sampling probe (InPhotonics, Norwood, MA, USA) was used. The spectral range measured was 2200-100 cm^−1 at a resolution of 5 cm^−1.

Data set [2] is described as follows: Flow-through dissolution test, concentration of the dissolution medium by in-line UV-Vis spectrophotometer. In kind it is physicochemical. The following applies: same setup as Example 1, flow rate 20 ml/min. On the procedure:
Dissolution testing was carried out employing simultaneous liquid/solid phase analysis. A modified flow-through dissolution method was used, in which • the concentration of the medium was measured with a UV-Vis spectrophotometer and • a simultaneous solid state analysis on the dissolving tablet in a flow-through chamber was performed using an in situ Raman spectroscopic analysis. The dissolution testing setup consisted of the flow-through cell, liquid reservoir (V=500 ml) and a peristaltic pump that circulates the medium (pump speed=70 rpm 9,3 ml/min). The dissolution medium used in the experiments was distilled water (room temperature).

Consider `O=C1CN(/N=C/c2ccc([N+](=O)[O-])o2)C(=O)N1` [NF anhydrate, Nitrofurantoin], for which, in data set [1], the “solid phase transformation during dissolution” value is “solid phase transformation of NF anhydrate to NF monohydrate (II); also recorded: an order of magnitude slower than that of TP anhydrate”. Further, in data set [2], the “changes of the dissolution rate” value is reported as “more complicated when compared to changes in the dissolution rate of TP”.
